In patent US11091421B2, “Benzene fused heterocyclic derivative and pharmaceutical composition comprising the same” (TAIWANJ PHARMACEUTICALS CO., LTD., priority 2017, dated 2021):

molecular target: autotaxin (Homo sapiens, UniProt Q13822); test: Autotaxin inhibitor screening assay (phosphodiesterase activity, p-nitrophenol cleaved from bis-(p-nitrophenyl) phosphate, absorbance 410 nm); type: biochemical; details: pH 9, compound at 30 μM; BNPP 3 mM, pH 9.0, 37° C., 30 minutes; read-out: Inhibition
Method: As described above, the compounds in the present disclosure have the effect of inhibiting the activity of autotaxin, and can be used as autotaxin inhibitors. One method for inhibiting activity of autotaxin in environment is administering to the environment an effective amount of the compound of Formula (I). Please refer to the following experiment, the phosphodiesterase activity of autotaxin was measured using the p-nitrophenol that is a yellow product cleaved by autotaxin from the bis-(p-nitrophenyl) phosphate. Compound samples (10 μl) were incubated with autotaxin (10 μl) in a final volume of 200 μl assay buffer (5 mM CaCl2, 50 mM Tris-HCl, pH 9.0) containing bis-(p-nitrophenyl) phosphate (BNPP) at a final concentration of 3 mM at 37° C. After 30 minutes, absorbance at 410 nm of the reacted solution was measured. The percent inhibition for each test article (TA) (compound) was determined using the following equation. % Inhibition=(O.D.vehicle−O.D.TA)/O.D.vehicle×100

SMILES	inhibition at 30 µM [%]
O=C(O)c1ccc(COc2ccc3c(c2)C/C(=C\c2cc(Cl)cc(C(F)(F)F)c2)C3=O)cc1 [Compound 129]	50 to 80
O=C(O)COc1ccc(COc2ccc3c(c2)C/C(=C\c2cc(Cl)cc(Cl)c2)C3=O)cc1 [Compound 131]	> 80
COC(=O)c1ccc(COc2ccc3c(c2)C/C(=C\c2cc(Cl)cc(Cl)c2)C3=O)cc1 [Compound 132]	< 50
O=C(O)c1ccc(COc2ccc3c(c2)CC(Cc2cc(Cl)cc(Cl)c2)C3=O)cc1 (stereo not drawn) [Compound 134]	> 80

Second part, the compound after the results:

inhibition at 30 µM [%]	SMILES
> 80	O=C(O)Cc1ccc(COc2ccc3c(c2)C/C(=C\c2cc(Cl)cc(Cl)c2)C3=O)cc1 [Compound 130]
50 to 80	O=C(O)c1ccc(COc2ccc3c(c2)C/C(=C\c2cc(Cl)cc(Cl)c2)C3O)cc1 (stereo not drawn) [Compound 133]
